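How tested: cells in 96-well plates exposed to compound for 48 hours at five concentrations. Abbreviation: GI50, concentration required for 50% inhibition of growth.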 Calls of active or inactive are those of the source. Cut-off read from the data, not from the text of the source: active = GI50 up to about 1.1 µM and inactive = higher.
How the values were obtained:
Assay in all cases: NCI tumour cell line growth inhibition, 48 h
PC-3 = test system: PC-3
HOP-62 = test system: HOP-62
LOX IMVI = test system: LOX IMVI
MDA-MB-231 = test system: MDA-MB-231
NCI-H23 = test system: NCI-H23
MDA-MB-435 = test system: MDA-MB-435
SR = test system: SR
DU-145 = test system: DU-145
SNB-75 = test system: SNB-75
NCI-H522 = test system: NCI-H522
HL-60 = test system: HL-60
A498 = test system: A498
CCRF-CEM = test system: CCRF-CEM
RXF 393 = test system: RXF 393
SF-268 = test system: SF-268
SF-539 = test system: SF-539
COLO 205 = test system: COLO 205
ACHN = test system: ACHN
U-251 = test system: U-251
NCI/ADR-RES = test system: NCI/ADR-RES

Measured: GI50

COc1cccc2c1C1(O)C2CCCCCCCCCC12OCCCO2 (stereo not given)
inactive: PC-3 6.44 µM | HOP-62 > 38.3 µM | LOX IMVI 10.5 µM | MDA-MB-231 33 µM | NCI-H23 > 58.6 µM | MDA-MB-435 24.6 µM | SR 3 µM | DU-145 92.7 µM | SNB-75 > 44.1 µM | NCI-H522 > 50.2 µM | HL-60 5.66 µM | A498 > 58.2 µM | CCRF-CEM 8.32 µM | RXF 393 > 100 µM | SF-268 9.82 µM | SF-539 8.38 µM | COLO 205 > 33.8 µM | ACHN > 35.2 µM | U-251 8.63 µM | NCI/ADR-RES > 100 µM

NC(Cc1ccc2oc3cc(=O)c4ccccc4c-3nc2c1)C(=O)O (stereo not given)
inactive: PC-3 > 83 µM | HOP-62 25.9 µM | LOX IMVI 13.4 µM | MDA-MB-231 > 79.6 µM | NCI-H23 4.31 µM | MDA-MB-435 4.4 µM | SR 16.6 µM | DU-145 15.5 µM | SNB-75 11.2 µM | NCI-H522 39.8 µM | HL-60 40.8 µM | A498 70.6 µM | CCRF-CEM 40.7 µM | RXF 393 77.6 µM | SF-268 43 µM | SF-539 20.3 µM | COLO 205 6.97 µM | ACHN 55.7 µM | U-251 26.2 µM | NCI/ADR-RES 47.4 µM

O=C(/C=C/c1ccc(O)cc1)c1ccc(O)cc1 [4,4'-DIHYDROXYCHALCONE]
inactive: PC-3 28.7 µM | HOP-62 21.8 µM | LOX IMVI 11.4 µM | MDA-MB-231 43.7 µM | NCI-H23 25.5 µM | MDA-MB-435 40.2 µM | SR 9.71 µM | DU-145 34.2 µM | SNB-75 20.9 µM | NCI-H522 3.94 µM | HL-60 17 µM | A498 31 µM | CCRF-CEM 13.6 µM | RXF 393 22.9 µM | SF-268 21.4 µM | SF-539 21.1 µM | COLO 205 30.4 µM | ACHN 23.9 µM | U-251 18 µM | NCI/ADR-RES 21.6 µM

O=[N+]([O-])O [NITRIC ACID]
inactive: PC-3 > 100 µM | HOP-62 > 100 µM | LOX IMVI > 100 µM | MDA-MB-231 > 100 µM | NCI-H23 > 100 µM | MDA-MB-435 > 100 µM | SR 77.1 µM | DU-145 > 100 µM | SNB-75 > 100 µM | NCI-H522 > 100 µM | HL-60 > 100 µM | A498 > 100 µM | CCRF-CEM > 100 µM | RXF 393 > 100 µM | SF-268 > 100 µM | SF-539 > 100 µM | COLO 205 > 100 µM | ACHN > 100 µM | U-251 > 100 µM | NCI/ADR-RES > 100 µM
